Test results as given in the Kinase Knowledgebase extract (Sharma et al. 2016).

The compounds below were run against CDK2 (human) (UniProt P24941) (assay: Enzyme Assay). Details: not given.

First: Nc1nc(NC2CN(C(=O)c3ccc([N+](=O)[O-])cc3)C2)sc1C(=O)c1c(F)cccc1F
Second: Nc1nc(NC2CCN(S(=O)(=O)c3ccc(CCN4CCC(c5ccccc5)C4)nc3)CC2)sc1C(=O)c1c(F)cccc1F (centres undefined)
The Ki of the first is 200-fold higher: 360 nM for the first, 1.8 nM for the second. The second binds more tightly here.

Same assay, conditions: concentration not given here

First: Nc1nc(NC2CCN(C(=O)[C@@H]3C[C@H]3c3ccccc3)CC2)sc1C(=O)c1c(F)cccc1F
Second: Nc1nc(NC2CCN(C(=O)[C@@H](O)c3ccccc3)CC2)sc1C(=O)c1c(F)cccc1F
The inhibition of the first is lower: -9% for the first, 61% for the second.

First: CC(=O)N1CSC[C@H]1C(=O)N1CCC(Nc2nc(N)c(C(=O)c3c(F)cccc3F)s2)CC1
Second: CN1CCC[C@H]1C(=O)N1CCC(Nc2nc(N)c(C(=O)c3c(F)cccc3F)s2)CC1
The inhibition of the first is lower: 20% for the first, 39% for the second.

Compared with `COc1cc(C(=O)N2CCC(Nc3nc(N)c(C(=O)c4c(F)cccc4F)s3)CC2)cc(OC)c1C`, `COc1ccc(C(=O)N2CCC(Nc3nc(N)c(C(=O)c4c(F)cccc4F)s3)CC2)cc1OC` is lower in inhibition: 58% for the first, -23% for the second.

First: CCOc1cccc(C(=O)N2CCC(Nc3nc(N)c(C(=O)c4c(F)cccc4F)s3)CC2)c1
Second: CCOc1cccc(/C=C/C(=O)N2CCC(Nc3nc(N)c(C(=O)c4c(F)cccc4F)s3)CC2)c1
The inhibition of the first is higher: 75% for the first, 50% for the second.

First: Nc1nc(NC2CCN(C(=O)Cc3ccncc3)CC2)sc1C(=O)c1c(F)cccc1F
Second: Nc1nc(NC2CCN(C(=O)/C=C/c3ccncc3)CC2)sc1C(=O)c1c(F)cccc1F
The inhibition of the first is lower: 17% for the first, 80% for the second.

Going from `Nc1nc(NC2CCN(C(=O)CCCS)CC2)sc1C(=O)c1c(F)cccc1F` to `CCCCCCC(=O)N1CCC(Nc2nc(N)c(C(=O)c3c(F)cccc3F)s2)CC1`, the inhibition rises from 23% to 59%.

First: Cc1ccc(C)c(CCCC(=O)N2CCC(Nc3nc(N)c(C(=O)c4c(F)cccc4F)s3)CC2)c1
Second: Cc1ccc(CCCC(=O)N2CCC(Nc3nc(N)c(C(=O)c4c(F)cccc4F)s3)CC2)c(C)c1
The inhibition of the first is higher: 41% for the first, 35% for the second.

Compared with `Nc1cccc(CC(=O)N2CCC(Nc3nc(N)c(C(=O)c4c(F)cccc4F)s3)CC2)c1`, `Nc1nc(NC2CCN(C(=O)Cc3ccc(Cl)cc3)CC2)sc1C(=O)c1c(F)cccc1F` is lower in inhibition: 61% for the first, 58% for the second.

Going from `CSCCC(O)C(=O)N1CCC(Nc2nc(N)c(C(=O)c3c(F)cccc3F)s2)CC1` (centres undefined) to `CC(C)CC(O)C(=O)N1CCC(Nc2nc(N)c(C(=O)c3c(F)cccc3F)s2)CC1` (centres undefined), the inhibition falls from 65% to 57%.

Compared with `CCCCOCC(=O)N1CCC(Nc2nc(N)c(C(=O)c3c(F)cccc3F)s2)CC1`, `CCOCC(=O)N1CCC(Nc2nc(N)c(C(=O)c3c(F)cccc3F)s2)CC1` is lower in inhibition: 79% for the first, 62% for the second.

Compared with `Cc1cc(C(=O)N2CCC(Nc3nc(N)c(C(=O)c4c(F)cccc4F)s3)CC2)n(C(C)(C)C)n1`, `Cc1nc(C)c(C(=O)N2CCC(Nc3nc(N)c(C(=O)c4c(F)cccc4F)s3)CC2)s1` is higher in inhibition: 59% for the first, 67% for the second.

Compared with `Nc1nc(NC2CCN(C(=O)COc3cccc(Cl)c3)CC2)sc1C(=O)c1c(F)cccc1F`, `Cc1ccc(OCC(=O)N2CCC(Nc3nc(N)c(C(=O)c4c(F)cccc4F)s3)CC2)c(C)c1` is lower in inhibition: 67% for the first, 51% for the second.

Compared with `C[C@H]1CC[C@H](C(=O)N2CCC(Nc3nc(N)c(C(=O)c4c(F)cccc4F)s3)CC2)CC1`, `COC1CCC(C(=O)N2CCC(Nc3nc(N)c(C(=O)c4c(F)cccc4F)s3)CC2)CC1` (centres undefined) is lower in inhibition: 65% for the first, 54% for the second.

Compared with `COc1cc(C)ccc1C(=O)N1CCC(Nc2nc(N)c(C(=O)c3c(F)cccc3F)s2)CC1`, `COc1ccc(Cl)cc1C(=O)N1CCC(Nc2nc(N)c(C(=O)c3c(F)cccc3F)s2)CC1` is lower in inhibition: 59% for the first, 18% for the second.

First: Nc1nc(NC2CCN(C(=O)CC3CCCC3)CC2)sc1C(=O)c1c(F)cccc1F
Second: Nc1nc(NC2CCN(C(=O)CC3CCCCC3)CC2)sc1C(=O)c1c(F)cccc1F
The inhibition of the first is lower: -20% for the first, -5% for the second.

Compared with `CCSc1ncccc1C(=O)N1CCC(Nc2nc(N)c(C(=O)c3c(F)cccc3F)s2)CC1`, `Cc1ccc(F)cc1C(=O)N1CCC(Nc2nc(N)c(C(=O)c3c(F)cccc3F)s2)CC1` is higher in inhibition: 38% for the first, 52% for the second.

First: CC(C)C(C)C(=O)N1CCC(Nc2nc(N)c(C(=O)c3c(F)cccc3F)s2)CC1 (centres undefined)
Second: CC(C)C[C@H](O)C(=O)N1CCC(Nc2nc(N)c(C(=O)c3c(F)cccc3F)s2)CC1
The inhibition of the first is lower: 35% for the first, 70% for the second.

Going from `C=CC(C)C(=O)N1CCC(Nc2nc(N)c(C(=O)c3c(F)cccc3F)s2)CC1` (centres undefined) to `C/C=C/C(=O)N1CCC(Nc2nc(N)c(C(=O)c3c(F)cccc3F)s2)CC1`, the inhibition falls from 37% to -9%.

First: Nc1nc(NC2CCN(C(=O)C3CCOC3)CC2)sc1C(=O)c1c(F)cccc1F (centres undefined)
Second: Nc1nc(NC2CCN(C(=O)C3CCCO3)CC2)sc1C(=O)c1c(F)cccc1F (centres undefined)
The inhibition of the first is higher: 81% for the first, 27% for the second.

Going from `CCc1ccc2[nH]c(C(=O)N3CCC(Nc4nc(N)c(C(=O)c5c(F)cccc5F)s4)CC3)cc2c1` to `Nc1nc(NC2CCN(C(=O)c3ccc4[nH]cnc4c3)CC2)sc1C(=O)c1c(F)cccc1F`, the inhibition falls from 74% to 72%.

Going from `COC(=O)CCCC(=O)N1CCC(Nc2nc(N)c(C(=O)c3c(F)cccc3F)s2)CC1` to `CCOC(=O)CCCC(=O)N1CCC(Nc2nc(N)c(C(=O)c3c(F)cccc3F)s2)CC1`, the inhibition falls from 45% to -6%.

First: [N-]=[N+]=C1C=C(S(=O)(=O)N2CCC(Nc3nc(N)c(C(=O)c4c(F)cccc4F)s3)CC2)c2ccccc2C1=O
Second: CS(=O)(=O)c1ccccc1S(=O)(=O)N1CCC(Nc2nc(N)c(C(=O)c3c(F)cccc3F)s2)CC1
The inhibition of the first is lower: -11% for the first, -5% for the second.

Compared with `COc1ccccc1C(O)C(=O)N1CCC(Nc2nc(N)c(C(=O)c3c(F)cccc3F)s2)CC1` (centres undefined), `CO[C@H](C(=O)N1CCC(Nc2nc(N)c(C(=O)c3c(F)cccc3F)s2)CC1)c1ccccc1` is higher in inhibition: 27% for the first, 50% for the second.

First: Nc1nc(NC2CCN(S(=O)(=O)c3ccc(Oc4ccncc4)cc3)CC2)sc1C(=O)c1c(F)cccc1F
Second: Nc1nc(NC2CCN(S(=O)(=O)c3ccc(Sc4ccncc4)cc3)CC2)sc1C(=O)c1c(F)cccc1F
The inhibition of the first is lower: -28% for the first, -25% for the second.

Compared with `Nc1nc(NC2CCN(C(=O)Cc3c[nH]c4ccc(F)cc34)CC2)sc1C(=O)c1c(F)cccc1F`, `Cc1cc(C)cc(CC(=O)N2CCC(Nc3nc(N)c(C(=O)c4c(F)cccc4F)s3)CC2)c1` is higher in inhibition: 66% for the first, 75% for the second.

First: CC(=O)O[C@@H](C(=O)N1CCC(Nc2nc(N)c(C(=O)c3c(F)cccc3F)s2)CC1)c1ccccc1
Second: CC(=O)OC(C(=O)N1CCC(Nc2nc(N)c(C(=O)c3c(F)cccc3F)s2)CC1)c1ccccc1 (centres undefined)
The inhibition of the first is higher: 25% for the first, -5% for the second.

First: C=CCC/C=C/C(=O)N1CCC(Nc2nc(N)c(C(=O)c3c(F)cccc3F)s2)CC1
Second: CCC/C=C/CC(=O)N1CCC(Nc2nc(N)c(C(=O)c3c(F)cccc3F)s2)CC1
The inhibition of the first is higher: 69% for the first, 49% for the second.

Going from `COc1ccc(C(=O)N2CCC(Nc3nc(N)c(C(=O)c4c(F)cccc4F)s3)CC2)cc1F` to `Nc1nc(NC2CCN(C(=O)c3ccc4[nH]nnc4c3)CC2)sc1C(=O)c1c(F)cccc1F`, the inhibition falls from 72% to 49%.

Compared with `CC(C)(CO)C(=O)N1CCC(Nc2nc(N)c(C(=O)c3c(F)cccc3F)s2)CC1`, `CC(=O)OCC(=O)N1CCC(Nc2nc(N)c(C(=O)c3c(F)cccc3F)s2)CC1` is lower in inhibition: 41% for the first, 25% for the second.

Compared with `CN(CC(=O)N1CCC(Nc2nc(N)c(C(=O)c3c(F)cccc3F)s2)CC1)C(=O)OC(C)(C)C`, `CC(CC(=O)N1CCC(Nc2nc(N)c(C(=O)c3c(F)cccc3F)s2)CC1)CC(C)(C)C` (centres undefined) is higher in inhibition: 12% for the first, 35% for the second.

Compared with `Nc1nc(NC2CCN(C(=O)c3cnccn3)CC2)sc1C(=O)c1c(F)cccc1F`, `Nc1nc(NC2CCN(C(=O)c3cccs3)CC2)sc1C(=O)c1c(F)cccc1F` is higher in inhibition: 58% for the first, 80% for the second.

Compared with `CO[C@@H](C(=O)N1CCC(Nc2nc(N)c(C(=O)c3c(F)cccc3F)s2)CC1)c1ccccc1`, `CC(=O)O[C@H](C(=O)N1CCC(Nc2nc(N)c(C(=O)c3c(F)cccc3F)s2)CC1)c1ccccc1` is lower in inhibition: 54% for the first, 41% for the second.

First: Nc1nc(NC2CCN(C(=O)c3cc4ccccc4o3)CC2)sc1C(=O)c1c(F)cccc1F
Second: Nc1nc(NC2CCN(C(=O)c3ccc(C=O)o3)CC2)sc1C(=O)c1c(F)cccc1F
The inhibition of the first is higher: 64% for the first, 39% for the second.

Going from `Nc1nc(NC2CCN(C(=O)CCc3ccc4c(c3)OCO4)CC2)sc1C(=O)c1c(F)cccc1F` to `COCCC(=O)N1CCC(Nc2nc(N)c(C(=O)c3c(F)cccc3F)s2)CC1`, the inhibition falls from 49% to 33%.

First: Nc1nc(NC2CCN(C(=O)N3CCCC3)CC2)sc1C(=O)c1c(F)cccc1F
Second: C#CCCC(=O)N1CCC(Nc2nc(N)c(C(=O)c3c(F)cccc3F)s2)CC1
The inhibition of the first is lower: -10% for the first, 52% for the second.

First: Nc1nc(NC2CCN(C(=O)CCC(=O)c3ccccc3)CC2)sc1C(=O)c1c(F)cccc1F
Second: CN(C)C(=O)CCC(=O)N1CCC(Nc2nc(N)c(C(=O)c3c(F)cccc3F)s2)CC1
The inhibition of the first is lower: 5% for the first, 49% for the second.

Going from `N#C/C(=C\c1cccc(O)c1)C(=O)N1CCC(Nc2nc(N)c(C(=O)c3c(F)cccc3F)s2)CC1` to `Nc1nc(NC2CCN(C(=O)c3ccc[n+]([O-])c3)CC2)sc1C(=O)c1c(F)cccc1F`, the inhibition falls from 84% to 46%.

Compared with `CN1CC(C(=O)N2CCC(Nc3nc(N)c(C(=O)c4c(F)cccc4F)s3)CC2)CC1=O` (centres undefined), `CC(C)CCC(=O)N1CCC(Nc2nc(N)c(C(=O)c3c(F)cccc3F)s2)CC1` is lower in inhibition: 41% for the first, 27% for the second.

Compared with `Nc1nc(NC2CCN(C(=O)c3ccccc3-n3cccc3)CC2)sc1C(=O)c1c(F)cccc1F`, `Nc1nc(NC2CCN(C(=O)C3(c4ccccc4)CC3)CC2)sc1C(=O)c1c(F)cccc1F` is lower in inhibition: 50% for the first, -2% for the second.

First: Nc1nc(NC2CCN(C(=O)CC3Cc4ccccc4C3)CC2)sc1C(=O)c1c(F)cccc1F
Second: CO[C@@](C(=O)N1CCC(Nc2nc(N)c(C(=O)c3c(F)cccc3F)s2)CC1)(c1ccccc1)C(F)(F)F
The inhibition of the first is higher: 37% for the first, -6% for the second.

First: Cn1ncc(C(=O)N2CCC(Nc3nc(N)c(C(=O)c4c(F)cccc4F)s3)CC2)c1[N+](=O)[O-]
Second: Nc1nc(NC2CCN(C(=O)c3csc([N+](=O)[O-])c3)CC2)sc1C(=O)c1c(F)cccc1F
The inhibition of the first is lower: 40% for the first, 48% for the second.

First: COc1cc(N)ccc1/C=C/C(=O)N1CCC(Nc2nc(N)c(C(=O)c3c(F)cccc3F)s2)CC1
Second: CC(O)(CC(=O)N1CCC(Nc2nc(N)c(C(=O)c3c(F)cccc3F)s2)CC1)C(F)(F)F (centres undefined)
The inhibition of the first is lower: 56% for the first, 64% for the second.

Compared with `CCCCC(CC)COC(=O)N1CCC(Nc2nc(N)c(C(=O)c3c(F)cccc3F)s2)CC1` (centres undefined), `Cc1c(S(=O)(=O)N2CCC(Nc3nc(N)c(C(=O)c4c(F)cccc4F)s3)CC2)sc2ccc(Cl)cc12` is higher in inhibition: -42% for the first, -2% for the second.

With `Nc1nc(NC2CCN(S(=O)(=O)c3cccc4cccnc34)CC2)sc1C(=O)c1c(F)cccc1F` the inhibition was -32%.
